Assay results reported in patent publication US7063946B2, “Methods, reagents, kits and apparatus for protein function analysis” (Meso Scale Technologies, LLC., priority 2001, dated 2006).
Where no end group is shown, it is not given here. [ ]: non-standard residue; d: D form. pY = N[C@@H](Cc1ccc(OP(=O)(O)O)cc1)C(=O)O

Columns and labels:
EGFR = molecular target: T1, EGFR (Homo sapiens, UniProt P00533); test: EGFR binding assay, bound EGFR detected by its tyrosine kinase activity towards pEY; settings: Grb2 plasmid, +EGFR, in presence of the peptide
T1 construct: autophosphorylated tyrosines (self-phosphorylated with ATP before use); purchased Sigma Chemical Co, MO
Protocol: Proteins were produced in an in vitro transcription and translation reaction using 40–100 ng of plasmid DNA. […] The unbound components of the reaction containing endogenous kinases were removed by three washes with TT-buffer (25 mM Tris-HCl buffer pH 7.4 and 0.004% Triton), two five minutes washings with high-salt wash buffer (25 mM Tris-HCl buffer pH 7.4, 0.004% Triton, 1M NaCl and 5 mM DTT) and 3 more washes with TT-buffer. […] The unbound EGFR was washed by 4 times washing with TT-buffer (25 mM Tris-HCl buffer pH 7.4 and 0.004% Triton). The amount of EGFR bound to the reticulocyte lysate expressed protein was determined by detecting the kinase activity of EGFR. A tyrosine kinase substrate, 5 nM pEY (poly Glu-Tyr, Sigma, MO) was added in a 50 μl reaction containing 5 mM MgCl2, 5 mM MnCl2, 100 μM ATP, 25 mM Tris-HCl buffer pH 7.4, 0.05 mM Na3VO4, 0.004% TritonX-100, 2 mM DTT and EDTA-free protease inhibitor (Roche Molecular Biochemicals). This mixture was incubated with shaking at room temperature for 1 or 12 hours to allow phosphorylation of the pEY substrate by the EGFR. […]
The unbound reagents were removed by one time washing with TT-buffer (25 mM Tris-HCl buffer pH 7.4 and 0.004% Triton), and the TAG label was detected in presence of 150 μl IPR assay buffer (0.4 mM Gly-Gly buffer, pH 7.8, 1 mM EDTA, 0.1 M TPA). The ECL signals were measured using an imaging plate reader.

[1] = test system: tyrosine kinases reported to be the target of each inhibitor; settings: read-out: reported IC50 concentration (1× concentration); for the kinase reported to be the target of the inhibitor; cited from earlier work
FRK = test: Kinase inhibitor profiling, autophosphorylation; assay type: biochemical
Protocol: (§1) Proteins were produced from DNA plasmids of Mock Luciferase, Promega, tyrosine kinase clone Spleen Tyrosine kinase (SYK, IMAGE ID# 3870426) and Eph receptor-A7 (EphA7, IMAGE ID# 3991628) (Incyte Genomics, CA) and immobilized on streptavidin or avidin coated NPT-IPR plates as described in the Example 7. To promote autophosphorylation in these immobilized and purified proteins, Mn++ ions were added in a 50 μl reaction containing 5 mM MgCl2, 5 mM MnCl2, 100 μM ATP, 25 mM Tris-HCl buffer pH 7.4, 0.05 mM Na3VO4, 0.004% TritonX-100, 2 mM DTT and EDTA-free protease inhibitor (Roche Molecular Biochemicals). This mixture was incubated with shaking at room temperature overnight to allow autophosphorylation. Following this incubation, wells were washed 2 times with TT-buffer and 2 times with water. Following this step, 50 ng Sulfo-TAG labeled anti-phosphotyrosine in buffer containing 25 mM Tris-HCl buffer pH 7.4, 5 mM MgCl2, 0.05 mM Na3VO4, 0.004% TritonX-100, 2 mM DTT and 0.05% IgG in a final volume of 50 μl was added followed by incubation at room temperature for 45 min. The unbound reagents were removed by one time washing with water, and the TAG label was detected in presence of 150 μl IPR assay buffer (0.4 mM Gly—Gly buffer, pH 7.8, 1 mM EDTA, 0.1 M TPA). The ECL signals were measured using an imaging plate reader.
(§2) Proteins were produced using 100 ng of plasmid DNA Mock (Luciferase, Promega) or tyrosine kinases (Fert2 IMAGE ID # 4485050, FGFR1 IMAGE ID # 4037899, Fgfr2 IMAGE ID # 2654352, Src IMAGE ID # 3156400, BMX IMAGE ID # 3919253, LCK IMAGE ID # 4191610, Epha7 IMAGE ID # 3991628, Ephb4 IMAGE ID # 4013934, Tek IMAGE ID # 3482498, HCK IMAGE ID # 4778819, BTK IMAGE ID # 4478463, CSK IMAGE ID # 4398416, SYK IMAGE ID # 3870426, FGR IMAGE ID # 4419973, PTK2B IMAGE ID # 4339456, FRK(IMAGE ID # 4515877, Kit IMAGE ID # 2644960, Fgfr-4 IMAGE ID # 4239139, NTRK3 IMAGE ID # 4181574, Kdr IMAGE ID # 4238984, Incyte Genomics, CA) and immobilized on SA or avidin coated NPT-IPR plates as described in previous examples. The unbound components of the translation reaction (including any endogenous kinases) were removed by 3 washes with TT-buffer (25 mM Tris-HCl buffer pH 7.4 and 0.004% Triton), two five minutes washes with high-salt wash buffer (25 mM Tris-HCl buffer pH 7.4, 0.004% Triton, 1M NaCl and 5 mM DTT) and 3 washes with TT-buffer. […] The mixture was incubated at room temperature for 10 mm before starting the kinase reaction by adding 25 μl of 200 μM ATP in buffer A. This mixture was incubated with intermittent shaking at room temperature for 2 hours to overnight to allow (a) phosphorylation of the pEY substrate and (b) autophosphorylation of the immobilized kinases. Autophosphorylation and phosphorylation of the pEY was measured as described in Examples 7 and 8.
(§3) The ECL signal in control wells produced by tyrosine kinases was compared to the wells containing inhibitor compounds. The signal produced from Mock was negligible.

Kit [2] = molecular target: T2, Kit (Mus musculus, UniProt P05532); test: Kinase inhibitor profiling, pEY phosphorylation; assay type: biochemical
T2 construct: specificity data for proteins generated from a library of eighteen full-length clones; biotin on random lysines (biotin-Lys-tRNA); host or cells: rabbit reticulocyte lysate, coupled transcription/translation (TnT, Promega)
T2 sequence (P05532 25-979): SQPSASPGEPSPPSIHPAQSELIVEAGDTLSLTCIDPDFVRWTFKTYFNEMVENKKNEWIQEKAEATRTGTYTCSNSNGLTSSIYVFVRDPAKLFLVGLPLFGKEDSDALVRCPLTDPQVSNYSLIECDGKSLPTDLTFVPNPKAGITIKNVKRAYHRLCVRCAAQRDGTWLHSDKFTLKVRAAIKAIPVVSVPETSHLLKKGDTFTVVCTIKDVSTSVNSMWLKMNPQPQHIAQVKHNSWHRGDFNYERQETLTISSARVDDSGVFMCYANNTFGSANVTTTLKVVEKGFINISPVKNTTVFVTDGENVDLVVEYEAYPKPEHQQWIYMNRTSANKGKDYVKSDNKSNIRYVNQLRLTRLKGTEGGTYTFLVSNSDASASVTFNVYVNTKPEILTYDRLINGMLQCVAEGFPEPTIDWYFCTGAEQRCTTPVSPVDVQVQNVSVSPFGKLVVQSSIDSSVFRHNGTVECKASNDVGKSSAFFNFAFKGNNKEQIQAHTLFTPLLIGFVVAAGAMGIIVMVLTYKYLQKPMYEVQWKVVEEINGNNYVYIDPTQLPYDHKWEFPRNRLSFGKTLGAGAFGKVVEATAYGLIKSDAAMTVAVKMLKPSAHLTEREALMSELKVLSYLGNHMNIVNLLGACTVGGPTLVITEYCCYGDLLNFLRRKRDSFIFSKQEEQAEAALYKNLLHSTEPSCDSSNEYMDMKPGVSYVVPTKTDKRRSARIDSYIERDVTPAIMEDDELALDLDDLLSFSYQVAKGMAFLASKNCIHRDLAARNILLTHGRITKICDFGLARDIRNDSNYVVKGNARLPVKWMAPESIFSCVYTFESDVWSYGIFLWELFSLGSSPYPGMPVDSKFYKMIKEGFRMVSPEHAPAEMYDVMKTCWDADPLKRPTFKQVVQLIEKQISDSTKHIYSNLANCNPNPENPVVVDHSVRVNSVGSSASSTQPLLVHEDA
Protocol: (§4) Proteins were produced in an in vitro transcription and translation reaction. […] The unbound components of the reaction containing endogenous kinases were removed by three washes with TT-buffer (25 mM Tris-HCl buffer pH 7.4 and 0.004% Triton), two five minutes washings with high-salt wash buffer (25 mM Tris-HCl buffer pH 7.4, 0.004% Triton, 1M NaCl and 5 mM DTT) and 3 more washes with TT-buffer. To these immobilized and purified proteins a tyrosine kinase substrate, 5 nM pEY (poly Glu-Tyr, Sigma, MO), was added in a 50 μl reaction solution containing 5 mM MgCl2, 5 mM MnCl2, 100 μM ATP, 25 mM Tris-HCl buffer pH 7.4, 0.05 mM Na3VO4, 0.004% TritonX-100, 2 mM DTT and EDTA-free protease inhibitor (Roche Molecular Biochemicals). This mixture was incubated with shaking at room temperature overnight to allow phosphorylation of the pEY substrate by the immobilized kinases. Following this incubation, 45 μl of this mixture was transferred to a streptavidin or avidin-coated NPT IPR plate coated with biotinylated anti-phosphotyrosine antibody (PY20, Zymed labs, CA) followed by incubation for 30 minutes at room temperature to allow the binding of the phosphorylated pEY substrate to the PY20 coated NPT plate. Following this binding step, 50 ng Sulfo-TAG labeled anti-phosphotyrosine in buffer containing 25 mM Tris-HCl buffer pH 7.4, 5 mM MgCl2, 0.05 mM Na3VO4, 0.004% TritonX-100, 2 mM DTT and 0.05% IgG was added followed by incubation at room temperature for 30 mm. The unbound reagents were removed by one time washing with water, and the TAG label was detected in presence of 150 μl IPR assay buffer (0.4 mM Gly-Gly buffer, pH 7.8, 1 mM EDTA, 0.1 M TPA). The ECL signals were measured using an imaging plate reader.
as §2, §3

pEY = test: In vitro kinase library screen: activity towards pEY; assay type: biochemical; settings: 5 ul of expressed protein
Protocol: as §4
(§5) Proteins were produced in an in vitro transcription and translation reaction as described in the Materials and Methods. […] The reaction was stopped by mixing with BB2 buffer. Biotinylated proteins from 50 μl of the mixture (representing 0.5 μl to 5 μl of TnT reaction) were immobilized onto streptavidin or avidin coated NPT-IPR plates by shaking at room temperature for 45 min. The activity of the immobilized protein towards pEY or autophosphorylation was further assayed by the methods described in examples 7 and 8.

[3] = test system: autophosphorylation (phosphotyrosine); test: In vitro kinase library screen: autophosphorylation; assay type: biochemical
Protocol: as §1, §5

[4] = test system: autophosphorylation (phosphotyrosine); test: Autophosphorylation activity assay of immobilized in vitro translated protein; assay type: biochemical; settings: 0.5 μl of TnT reaction
Protocol: as §1

Fgfr4 [5] = molecular target: T3, Fgfr4 (Mus musculus, UniProt Q03142); test: Kinase inhibitor profiling, autophosphorylation; assay type: biochemical
T3 construct: specificity data for proteins generated from a library of eighteen full-length clones; biotin on random lysines (biotin-Lys-tRNA); host or cells: rabbit reticulocyte lysate, coupled transcription/translation (TnT, Promega)
T3 sequence (Q03142 17-799): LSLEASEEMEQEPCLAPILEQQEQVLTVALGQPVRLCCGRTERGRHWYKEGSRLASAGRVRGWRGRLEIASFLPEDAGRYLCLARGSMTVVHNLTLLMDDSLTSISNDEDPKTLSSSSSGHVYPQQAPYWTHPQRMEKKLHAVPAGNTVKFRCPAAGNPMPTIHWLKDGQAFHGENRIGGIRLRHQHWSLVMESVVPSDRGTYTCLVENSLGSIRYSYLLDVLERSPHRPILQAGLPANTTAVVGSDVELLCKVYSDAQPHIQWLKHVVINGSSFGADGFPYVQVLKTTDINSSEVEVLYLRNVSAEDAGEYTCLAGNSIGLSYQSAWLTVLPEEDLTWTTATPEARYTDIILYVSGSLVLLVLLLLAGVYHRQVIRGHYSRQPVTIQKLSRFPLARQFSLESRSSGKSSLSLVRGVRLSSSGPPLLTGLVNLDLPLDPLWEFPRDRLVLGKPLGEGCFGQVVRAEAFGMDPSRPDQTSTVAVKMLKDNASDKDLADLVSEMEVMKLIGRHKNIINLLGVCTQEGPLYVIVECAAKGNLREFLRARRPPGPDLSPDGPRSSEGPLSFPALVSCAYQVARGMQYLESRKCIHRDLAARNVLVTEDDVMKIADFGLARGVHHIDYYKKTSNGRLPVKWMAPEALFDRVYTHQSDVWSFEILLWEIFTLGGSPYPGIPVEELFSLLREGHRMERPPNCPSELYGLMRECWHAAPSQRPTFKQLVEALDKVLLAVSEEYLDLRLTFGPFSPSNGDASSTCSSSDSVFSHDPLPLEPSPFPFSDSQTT
Protocol: as §1, §2, §3

Kit [6] = molecular target: T2, Kit; test: Kinase inhibitor profiling, autophosphorylation; assay type: biochemical
Protocol: as §1, §2, §3

SYK [7] = molecular target: T4, SYK (Homo sapiens, UniProt P43405); test: Kinase inhibitor profiling, autophosphorylation; assay type: biochemical
T4 construct: autophosphorylation activity from full-length clones Spleen Tyrosine Kinase (SYK) and Eph receptor-A7 (EphA7); host or cells: rabbit reticulocyte lysate, TnT coupled in vitro transcription/translation (cell-free)
Protocol: as §1, §2, §3

PTK2B [8] = molecular target: T5, PTK2B (Homo sapiens, UniProt Q14289); test: Kinase inhibitor profiling, autophosphorylation; assay type: biochemical
T5 construct: specificity data for proteins generated from a library of eighteen full-length clones; host or cells: rabbit reticulocyte lysate, TnT coupled in vitro transcription/translation (cell-free)
T5 sequence (Q14289 whole entry): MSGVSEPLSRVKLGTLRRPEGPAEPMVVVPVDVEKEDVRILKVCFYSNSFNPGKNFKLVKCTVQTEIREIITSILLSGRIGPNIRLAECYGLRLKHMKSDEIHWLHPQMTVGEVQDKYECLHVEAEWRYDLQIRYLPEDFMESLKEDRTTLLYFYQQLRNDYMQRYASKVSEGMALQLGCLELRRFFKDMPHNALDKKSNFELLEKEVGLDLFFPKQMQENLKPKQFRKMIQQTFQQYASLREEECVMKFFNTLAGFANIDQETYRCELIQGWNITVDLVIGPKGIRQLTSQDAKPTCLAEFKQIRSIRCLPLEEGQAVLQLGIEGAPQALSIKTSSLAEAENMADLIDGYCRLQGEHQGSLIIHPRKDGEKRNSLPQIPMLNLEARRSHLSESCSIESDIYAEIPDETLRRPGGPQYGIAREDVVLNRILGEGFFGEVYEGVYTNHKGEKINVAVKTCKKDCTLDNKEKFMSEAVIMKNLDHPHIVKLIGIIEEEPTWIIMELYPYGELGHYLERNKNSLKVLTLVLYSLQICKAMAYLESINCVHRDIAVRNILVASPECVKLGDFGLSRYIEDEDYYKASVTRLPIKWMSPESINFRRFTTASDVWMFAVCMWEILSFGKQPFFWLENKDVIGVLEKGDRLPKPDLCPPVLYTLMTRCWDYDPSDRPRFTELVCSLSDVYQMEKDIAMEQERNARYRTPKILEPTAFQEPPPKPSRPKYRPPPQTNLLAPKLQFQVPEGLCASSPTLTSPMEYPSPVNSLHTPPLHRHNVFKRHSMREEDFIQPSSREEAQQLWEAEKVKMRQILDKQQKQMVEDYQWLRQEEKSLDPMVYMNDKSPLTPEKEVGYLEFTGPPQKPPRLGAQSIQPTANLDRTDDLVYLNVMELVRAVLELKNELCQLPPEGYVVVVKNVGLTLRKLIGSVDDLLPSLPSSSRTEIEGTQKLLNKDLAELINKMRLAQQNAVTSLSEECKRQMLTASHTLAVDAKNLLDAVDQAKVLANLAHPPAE
Protocol: as §1, §2, §3

Fgfr4 [9] = molecular target: T3, Fgfr4; test: Kinase inhibitor profiling, pEY phosphorylation; assay type: biochemical
Protocol: as §4, §2, §3

HCK = molecular target: T6, HCK (Homo sapiens, UniProt P08631); test: Kinase inhibitor profiling, pEY phosphorylation; assay type: biochemical
T6 construct: specificity data for proteins generated from a library of eighteen full-length clones; host or cells: rabbit reticulocyte lysate, TnT coupled in vitro transcription/translation (cell-free)
T6 sequence (P08631 whole entry): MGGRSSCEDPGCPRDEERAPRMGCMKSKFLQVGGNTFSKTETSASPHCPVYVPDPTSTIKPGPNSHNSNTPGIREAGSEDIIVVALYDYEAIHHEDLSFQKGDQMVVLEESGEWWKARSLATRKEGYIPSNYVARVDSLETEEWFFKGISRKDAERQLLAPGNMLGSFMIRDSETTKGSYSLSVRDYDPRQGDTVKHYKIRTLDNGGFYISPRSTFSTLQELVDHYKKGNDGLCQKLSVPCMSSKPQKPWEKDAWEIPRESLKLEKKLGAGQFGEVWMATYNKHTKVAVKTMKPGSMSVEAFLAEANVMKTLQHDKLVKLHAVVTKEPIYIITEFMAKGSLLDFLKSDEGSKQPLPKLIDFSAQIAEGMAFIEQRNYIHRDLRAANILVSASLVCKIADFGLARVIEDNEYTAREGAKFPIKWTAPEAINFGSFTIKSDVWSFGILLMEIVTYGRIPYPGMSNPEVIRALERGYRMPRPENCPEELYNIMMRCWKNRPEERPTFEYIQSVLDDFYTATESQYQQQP
Protocol: as §4, §2, §3

CSK = molecular target: T7, CSK (Homo sapiens, UniProt P41240); test: Kinase inhibitor profiling, pEY phosphorylation; assay type: biochemical
T7 construct: specificity data for proteins generated from a library of eighteen full-length clones; host or cells: rabbit reticulocyte lysate, TnT coupled in vitro transcription/translation (cell-free)
T7 sequence (P41240 whole entry): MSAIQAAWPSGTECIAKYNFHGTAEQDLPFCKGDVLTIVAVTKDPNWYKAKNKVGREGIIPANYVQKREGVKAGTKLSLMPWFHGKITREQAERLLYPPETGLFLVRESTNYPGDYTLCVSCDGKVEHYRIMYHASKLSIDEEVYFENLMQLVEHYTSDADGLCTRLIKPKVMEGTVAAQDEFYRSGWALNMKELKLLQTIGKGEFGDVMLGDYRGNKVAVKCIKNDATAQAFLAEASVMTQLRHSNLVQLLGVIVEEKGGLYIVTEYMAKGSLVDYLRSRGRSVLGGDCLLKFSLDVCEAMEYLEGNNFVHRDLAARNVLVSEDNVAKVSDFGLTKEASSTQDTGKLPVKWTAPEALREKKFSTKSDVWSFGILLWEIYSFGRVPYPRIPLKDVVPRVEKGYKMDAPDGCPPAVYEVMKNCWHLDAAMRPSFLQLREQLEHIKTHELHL
Protocol: as §4, §2, §3

SYK [10] = molecular target: T4, SYK; test: Kinase inhibitor profiling, pEY phosphorylation; assay type: biochemical
Protocol: as §4, §2, §3

PTK2B [11] = molecular target: T5, PTK2B; test: Kinase inhibitor profiling, pEY phosphorylation; assay type: biochemical
Protocol: as §4, §2, §3

## Peptide: un-phosphorylated form of the EGFR 1063–1081 peptide (SEQ ID NO: 8) (LPVPEYINQSVPKRPAGSVC; Synthetic Fragment of EGFR-Y1068)
EGFR
  ECL signal: 34,055

## CC(C)(C)n1nc(-c2ccc(Cl)cc2)c2c(N)ncnc21 [PP2]
[1]
  IC50: 4 nM
FRK
  Inhibition specificity towards Autophosphorylation at 10X IC50, FRK: L (low inhibition (“L”=between 50–75% of the activity remaining))
Kit [2]
  Inhibition specificity towards pEY phosphorylation at 10X IC50, Kit: L (low inhibition (“L”=between 50–75% of the activity remaining))

## 3991628: IMAGE clone protein: EPHA7, Eph receptor A7 [compound 3991628]
pEY
  HTS signal: 24,930
[3]
  ECL signal: 115,662
[4]
  ECL signal: 39,967
  fold higher ECL signal than background produced by Mock (Luciferase): ~47 fold

## O=C1Nc2ccccc2/C1=C/c1ccc[nH]1 [Oxindole 1]
Fgfr4 [5]
  Inhibition specificity towards Autophosphorylation at 10X IC50, Fgfr4: L (low inhibition (“L”=between 50–75% of the activity remaining))
Kit [6]
  Inhibition specificity towards Autophosphorylation at 10X IC50, Kit: M (medium inhibition (“M”=between 25 to 50% of the activity remaining))
SYK [7]
  Inhibition specificity towards Autophosphorylation at 10X IC50, SYK: L (low inhibition (“L”=between 50–75% of the activity remaining))
PTK2B [8]
  Inhibition specificity towards Autophosphorylation at 10X IC50, PTK2B: L (low inhibition (“L”=between 50–75% of the activity remaining))
Fgfr4 [9]
  Inhibition specificity towards pEY phosphorylation at 10X IC50, Fgfr4: M (medium inhibition (“M”=between 25 to 50% of the activity remaining))
HCK
  Inhibition specificity towards pEY phosphorylation at 10X IC50, HCK: L (low inhibition (“L”=between 50–75% of the activity remaining))
Kit [2]
  Inhibition specificity towards pEY phosphorylation at 10X IC50, Kit: H (high inhibition (“H”=less than 25% of the activity remaining))
CSK
  Inhibition specificity towards pEY phosphorylation at 10X IC50, CSK: M (medium inhibition (“M”=between 25 to 50% of the activity remaining))
SYK [10]
  Inhibition specificity towards pEY phosphorylation at 10X IC50, SYK: L (low inhibition (“L”=between 50–75% of the activity remaining))
PTK2B [11]
  Inhibition specificity towards pEY phosphorylation at 10X IC50, PTK2B: M (medium inhibition (“M”=between 25 to 50% of the activity remaining))

## LPVPE(p)YINQSVPKRPAGSVC (LPVPE[pY]INQSVPKRPAGSVC) [Phosphopeptide]
EGFR
  ECL signal: 7,348
